Here are results for two molecules from BindingDB's records for doi:10.1021/np049624z (Harvard Medical School, 2005).

The assay has as its target Forkhead box protein O1 (Homo sapiens, UniProt Q12778). The assay can be described thus: Inhibition of FOXO1a nuclear export in PTEN-deficient cells.

Forkhead box protein O1, sequence (Q12778 whole entry): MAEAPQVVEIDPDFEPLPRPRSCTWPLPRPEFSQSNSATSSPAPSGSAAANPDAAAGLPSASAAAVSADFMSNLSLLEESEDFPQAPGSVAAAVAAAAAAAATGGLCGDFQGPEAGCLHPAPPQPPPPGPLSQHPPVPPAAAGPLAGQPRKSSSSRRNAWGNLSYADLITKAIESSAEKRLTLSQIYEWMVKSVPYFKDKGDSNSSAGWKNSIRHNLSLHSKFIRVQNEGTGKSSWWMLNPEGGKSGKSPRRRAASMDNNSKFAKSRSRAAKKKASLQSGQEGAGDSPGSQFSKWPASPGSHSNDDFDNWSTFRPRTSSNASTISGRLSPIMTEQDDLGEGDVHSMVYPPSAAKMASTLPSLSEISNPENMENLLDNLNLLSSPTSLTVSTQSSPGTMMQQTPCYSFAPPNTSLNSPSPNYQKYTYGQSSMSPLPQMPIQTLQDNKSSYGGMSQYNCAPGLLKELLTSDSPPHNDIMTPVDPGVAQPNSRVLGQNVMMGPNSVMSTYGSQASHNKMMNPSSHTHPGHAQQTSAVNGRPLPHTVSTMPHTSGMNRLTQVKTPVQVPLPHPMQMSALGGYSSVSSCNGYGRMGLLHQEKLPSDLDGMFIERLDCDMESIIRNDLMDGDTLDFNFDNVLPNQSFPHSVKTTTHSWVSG

A word on the IC50: it is the concentration at which inhibition is half-maximal. Read a high IC50 as weaker potency. Molecule `CN(C)CCCOc1c(Br)cc(/C=C/C(=O)NCCCOc2c(Br)cc(CCN(C)C)cc2Br)cc1Br` [psammaplysene A] displayed a half-inhibitory concentration (IC50) of 5 µM. Consider `CNCCCOc1c(Br)cc(/C=C/C(=O)NCCCOc2c(Br)cc(CCN(C)C)cc2Br)cc1Br` [psammaplysene B], for which the IC50 worked out at 20 µM.
